# Assay results reported in PMC8179156, “Retrograde sulfur flow from glucosinolates to cysteine in Arabidopsis thaliana” (Proceedings of the National Academy of Sciences of the …, 2021).
# Columns and labels:
# Assay type in all cases: biochemical
# AtBGLU28-His6 = target: T1, AtBGLU28-His6 (Arabidopsis thaliana, UniProt Q4V3B3); assay: D-glucose release, extract of expressing N. benthamiana leaves; details: crude extract; His6-GFP control at background
# T1 construct: gene BGLU28; C-terminal His6 tag; transient expression in Nicotiana benthamiana leaves; crude protein extract
# T1 sequence (Q4V3B3 22-582): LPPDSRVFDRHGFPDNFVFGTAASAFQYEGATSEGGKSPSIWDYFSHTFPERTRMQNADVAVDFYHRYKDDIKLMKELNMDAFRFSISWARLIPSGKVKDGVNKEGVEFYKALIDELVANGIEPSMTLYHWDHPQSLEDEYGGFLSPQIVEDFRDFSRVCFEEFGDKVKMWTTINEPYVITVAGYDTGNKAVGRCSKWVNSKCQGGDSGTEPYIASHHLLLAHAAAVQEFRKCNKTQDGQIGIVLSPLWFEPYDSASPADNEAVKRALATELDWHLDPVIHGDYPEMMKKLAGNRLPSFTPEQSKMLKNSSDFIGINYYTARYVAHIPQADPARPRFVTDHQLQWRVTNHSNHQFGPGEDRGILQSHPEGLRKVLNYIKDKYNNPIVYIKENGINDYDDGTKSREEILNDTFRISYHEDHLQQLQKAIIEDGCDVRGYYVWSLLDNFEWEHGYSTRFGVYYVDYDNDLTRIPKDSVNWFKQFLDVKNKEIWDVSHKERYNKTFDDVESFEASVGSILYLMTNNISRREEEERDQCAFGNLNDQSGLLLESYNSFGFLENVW
# AtTGG1-His6 = target: T2, AtTGG1-His6 (Arabidopsis thaliana, UniProt P37702); assay: as above; details: crude extract; His6-GFP control at background
# T2 construct: gene TGG1; His6 tag (printed AtTGG1-His6); transient expression in Nicotiana benthamiana leaves; crude protein extract
# AtOXP1 [1] = target: T3, AtOXP1 (Arabidopsis thaliana, UniProt Q9FIZ7); assay: Glu production in crude seedling extract, WT versus oxp1-1; details: native crude extract; stereochemistry of 5OP not given
# T3 construct: gene OXP1; native enzyme in crude protein extract of 14-d-old seedlings; assigned by comparison with oxp1-1 mutant
# T3 sequence (Q9FIZ7 1-1266): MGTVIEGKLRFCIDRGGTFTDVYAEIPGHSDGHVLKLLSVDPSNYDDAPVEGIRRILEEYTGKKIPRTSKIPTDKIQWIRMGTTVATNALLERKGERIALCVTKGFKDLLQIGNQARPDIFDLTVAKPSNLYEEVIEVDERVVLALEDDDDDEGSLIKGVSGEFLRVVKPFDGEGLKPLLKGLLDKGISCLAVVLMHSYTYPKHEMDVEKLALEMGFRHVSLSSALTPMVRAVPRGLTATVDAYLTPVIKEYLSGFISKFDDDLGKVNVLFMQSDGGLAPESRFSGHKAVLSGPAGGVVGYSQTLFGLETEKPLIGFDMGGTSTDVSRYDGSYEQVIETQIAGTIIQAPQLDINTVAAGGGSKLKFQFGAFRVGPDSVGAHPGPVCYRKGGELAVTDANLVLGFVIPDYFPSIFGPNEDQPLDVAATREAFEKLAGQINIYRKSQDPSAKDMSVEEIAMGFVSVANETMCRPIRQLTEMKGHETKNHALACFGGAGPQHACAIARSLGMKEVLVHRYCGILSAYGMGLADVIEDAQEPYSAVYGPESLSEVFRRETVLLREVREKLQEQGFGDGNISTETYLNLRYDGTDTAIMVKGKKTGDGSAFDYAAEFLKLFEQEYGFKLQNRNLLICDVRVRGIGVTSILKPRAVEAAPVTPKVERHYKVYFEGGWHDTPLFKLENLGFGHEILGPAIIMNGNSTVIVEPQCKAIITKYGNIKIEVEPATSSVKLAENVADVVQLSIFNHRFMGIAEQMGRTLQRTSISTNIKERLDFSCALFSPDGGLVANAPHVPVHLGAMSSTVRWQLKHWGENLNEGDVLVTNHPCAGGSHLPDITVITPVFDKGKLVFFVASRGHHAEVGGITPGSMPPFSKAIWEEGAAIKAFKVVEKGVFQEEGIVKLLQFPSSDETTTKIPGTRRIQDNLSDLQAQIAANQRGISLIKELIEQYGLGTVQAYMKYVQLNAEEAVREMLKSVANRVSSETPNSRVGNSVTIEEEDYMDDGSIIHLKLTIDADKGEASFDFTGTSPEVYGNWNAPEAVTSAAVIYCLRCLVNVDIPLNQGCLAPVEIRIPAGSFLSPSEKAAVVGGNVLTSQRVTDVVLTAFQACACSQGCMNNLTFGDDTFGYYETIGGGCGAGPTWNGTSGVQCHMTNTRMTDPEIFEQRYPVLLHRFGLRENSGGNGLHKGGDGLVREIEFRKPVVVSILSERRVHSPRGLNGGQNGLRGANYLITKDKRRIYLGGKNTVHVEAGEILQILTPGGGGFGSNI
# AtOXP1 [2] = target: T3, AtOXP1; assay: Cys production in crude seedling extract, WT versus oxp1-1; details: native crude extract; stereochemistry of pCys not given
# T2 sequence (P37702 20-541): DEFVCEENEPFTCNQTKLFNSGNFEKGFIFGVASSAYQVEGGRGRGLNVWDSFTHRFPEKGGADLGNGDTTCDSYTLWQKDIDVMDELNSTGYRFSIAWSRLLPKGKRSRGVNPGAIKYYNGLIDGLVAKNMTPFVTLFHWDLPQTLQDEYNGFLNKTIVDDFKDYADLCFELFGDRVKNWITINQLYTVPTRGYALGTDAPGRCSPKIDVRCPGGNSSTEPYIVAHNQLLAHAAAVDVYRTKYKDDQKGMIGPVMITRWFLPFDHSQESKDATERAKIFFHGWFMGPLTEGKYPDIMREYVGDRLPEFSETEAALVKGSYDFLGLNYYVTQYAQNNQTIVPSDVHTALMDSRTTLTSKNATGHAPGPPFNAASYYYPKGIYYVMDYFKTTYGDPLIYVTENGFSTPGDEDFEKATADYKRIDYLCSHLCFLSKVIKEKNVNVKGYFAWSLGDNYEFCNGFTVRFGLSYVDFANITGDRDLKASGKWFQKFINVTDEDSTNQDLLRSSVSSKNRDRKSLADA
Structure (SMILES),"D-glucose release, extract of expressing N. benthamiana leaves (AtBGLU28-His6)","D-glucose release, extract of expressing N. benthamiana leaves (AtTGG1-His6)","Glu production in crude seedling extract, WT versus oxp1-1 (AtOXP1 [1])","Cys production in crude seedling extract, WT versus oxp1-1 (AtOXP1 [2])"
"CSCCCC/C(=N/OS(=O)(=O)O)S[C@@H]1O[C@H](CO)[C@@H](O)[C@H](O)[C@H]1O [4MTB, 4-Methylthio-n-butyl glucosinolate]","exhibited higher rates of hydrolysis against 4MTB, benzyl glucosinolate, and PhE",the extract containing AtTGG1-His6 hydrolyzed all the tested GLs at similar rates,,
"O=C1CC[C@@H](C(=O)O)N1 [5OP, 5-oxoproline]",,,lower rate of Cys production than the WT as observed for the Glu production from 5OP,
"O=S(=O)(O)O/N=C(/CCc1ccccc1)S[C@@H]1O[C@H](CO)[C@@H](O)[C@H](O)[C@H]1O [PhE, 2-Phenylethyl glucosinolate]","exhibited higher rates of hydrolysis against 4MTB, benzyl glucosinolate, and PhE",the extract containing AtTGG1-His6 hydrolyzed all the tested GLs at similar rates,,
"O=C1N[C@H](C(=O)O)CS1 [pCys, 1,3-thiazolidin-2-one-4-carboxylic acid]",,,,"supporting that AtOXP1 can hydrolyze pCys, as reported for OPases in other organisms"
